{"source": "patent US20240216410A1", "about": "“METHODS AND COMPOSITIONS FOR TREATING CANCER THERAPY-INDUCED NEUTROPENIC FEVER AND/OR GVHD” (BOARD OF REGENTS, THE UNIVERSITY OF TEXAS SYSTEM, priority 2021, published 2024)", "key": {"[1]": {"test_system": "BT (MDA-JAX BT001)", "assay": "Mucin degradation assay of BT in porcine gastric mucin medium with monosaccharides", "assay_type": "cell-based, Bacteroides thetaiotaomicron", "settings": "monosaccharide added at 15 hours, further 3 hours", "description": "(§1) To examine the effects of the presence of monosaccharides on mucin utilization by BT, BT was cultivated in bacterial media containing porcine gastric mucin, a panel of monosaccharides was subsequently added, including arabinose and xylose, and levels of remaining mucin were quantified using a colorimetric assay (FIG. 18C). In the absence of additional monosaccharides, BT readily metabolized porcine gastric mucin.\nBacteria were cultured up to 48 hours at a starting concentration of 1×10^6 bacteria/ml in BYEM10 broth (pH 7.2) with and without 5 mg/ml of porcine gastric mucin (M1778, Sigma-Aldrich). Optical densities (OD600 nm) of bacterial cultures were measured with a BioTek EPOCH™ 2 plate reader.\nMucin degradation assay. Levels of mucin glycans in culture supernatants were determined by a PAS-based colorimetric assay as previously described (67) with minor modifications. Briefly, culture supernatants were centrifuged at 20,000 g, 4° C. for 10 minutes and collected. To perform mucin precipitation, 500 μL of culture supernatants were mixed with 1 mL of molecular grade ethanol and incubated at −30° C. overnight. Culture supernatants were centrifuged at 20,000 g, 4° C. for 10 minutes. Mucin-containing pellets were washed with 1 mL of molecular grade ethanol twice and resuspended in 500 μL of PBS. […] Absorbance was measured at 550 nm using a BioTek SYNERGY™ HTX plate reader."}, "[2]": {"test_system": "murine BT GH2 β-galactosidase, GH33 sialidase, GH29 α-L-fucosidase", "assay": "Quantitative real-time PCR of GH2, GH29 and GH33 BT loci", "assay_type": "cell-based, Bacteroides thetaiotaomicron", "settings": "BT cultured with or without monosaccharides", "source_text": "as §1\nQuantitative real-time PCR analysis of BT loci. Total RNA was isolated from in vitro cultured BT as described above. The cDNA was synthesized using a High-Capacity cDNA Reverse Transcription Kit (4368814, APPLIED BIOSYSTEMS™). The mRNA levels of selected targets were quantified by qPCR using KAPA SYBR® FAST Master Mix (Roche) and specific probes (GH2, 5′-[…]-3′ (SEQ ID NO:4) for the forward primer, 5′-[…]-3′ (SEQ ID NO:5) for the reverse primer; GH29, 5′-[…]-3′ (SEQ ID NO:6) for the forward primer, 5′-[…]-3′ (SEQ ID NO:7) for the reverse primer; GH33, 5′-[…]-3′ (SEQ ID NO:8) for the forward primer, 5′-[…]-3′ (SEQ ID NO:9) for the reverse primer) and were normalized to BT specific probes (5′-[…]-3′ (SEQ ID NO:10) for the forward primer, 5′-[…]-3′ (SEQ ID NO:11) for the reverse primer) (75)."}, "[3]": {"test_system": "intestinal microbiota", "assay": "Murine GVHD model: fecal microbiome composition (16S rRNA sequencing) and bacterial density (qPCR)", "assay_type": "in vivo, mice", "settings": "day 20; meropenem-treated mice with or without oral xylose 0.5% days 13 to 20", "description": "Effects of meropenem treatment on the composition of the intestinal microbiota of allo-HSCT mice were also examined (FIG. 15F).\nSequencing of 16S rRNA gene amplicons. Fecal samples from patients and mice were weighed before DNA isolation. In brief, genomic DNA was isolated using the QIAAMP® DNA mini kit (51306, QIAGEN®) according to the manufacturer's protocol that was modified to include an intensive bead-beating lysis step. The V4 region of 16S rRNA gene was amplified by PCR from 100 ng of each of extracted and purified genomic DNA using 515 forward and 806 reverse primer pairs (59). The quality and quantity of the barcoded amplicons were assessed on an Agilent 4200 TapeStation system (Agilent) and QUBIT™ Fluorometer (THERMO FISHER […]™), and libraries were prepared after pooling at equimolar ratios. The final libraries were purified using […]® gel extraction kit (28706X4, QIAGEN®) and sequenced with a 2×250 base pair paired-end protocol on the […]® MISEQ™ platform.\nMicrobiome data analysis. Sequencing data from paired-end reads were de-multiplexed using QIIME 2 (60). Merging of paired-end reads, dereplicating, and length filtering was performed using VSEARCH 2.17.1 (61). Following de-noising and chimera calling using the unoise3 command (62), unique sequences were taxonomically classified with mothur (63) using the Silva database (64) version 138. Weighted UniFrac distances (65) were determined using QIIME 2, visualized using principal coordinate analysis, and evaluated for statistical significance using permutational multivariate analysis of variance (PERMANOVA) testing. For differential abundance analysis, abundances of sequences belonging to taxonomical groups were included for analysis using the Mann-Whitney U test and adjusted for multiple comparisons using the method of Benjamini and Hochberg. Paired samples were analyzed using the Wilcoxon signed rank test with adjustment for multiple comparisons.\nQuantification of fecal bacterial density. Genomic DNA was isolated from stool as described above. qPCR was performed as previously described (66). In brief, 16S rRNA gene sequences were amplified from total fecal DNA using the primers 926F (5′-[…]-3′, where K is a G or a T; SEQ ID NO:2) and 1062R (5′-[…]-3′, where R is an A or a G; SEQ ID NO:3). Real-time PCR were carried out in 96-well optical plates on QUANTSTUDIO™ Flex 6 RT PCR (APPLIED BIOSYSTEMS™) and KAPA SYBR® FAST Master Mix (Roche). The PCR conditions included one initial denaturing step of 10 min at 95° C. and 40 cycles of 95° C. for 20 sec and 60 °C for 1 min. Melting-curve analysis was performed after amplification. To determined bacterial density, a plasmid with a 16S rRNA gene of a murine Blautia isolate was generated in the pCR4 backbone and used as a standard."}, "[4]": {"test_system": "colonic mucus layer", "assay": "Murine GVHD model: colonic mucus layer thickness (PAS staining)", "assay_type": "in vivo, mice", "settings": "day 20; xylose days 13 to 20 vs GVHD mice receiving meropenem alone", "description": "Next, assessed was the impact of meropenem treatment on the dense colonic mucus layer of mice with GVHD.\nAllo-HSCT recipient mice were treated with meropenem as in FIG. 15A and with xylose from days 13 to 20 (FIG. 18F). […] Importantly, in vitro, growth of mouse and human-derived BT in carbohydrate-poor media was augmented by xylose (FIG. 23B).\nXylose administration. D-(+)-xylose (X3877, SIGMA-ALDRICH®) was dissolved in phosphate buffer pH 8.0 with meropenem or in water without meropenem and given at a concentration of 0.5% from days 13 to 20 after allo-HSCT.\nHistological and immunohistochemistry analysis. […] Pathology scores were quantified by a blinded pathologist. […] Sections were imaged using an APERIO® AT2."}, "[5]": {"test_system": "mouse and human-derived BT", "assay": "Growth of BT in carbohydrate-poor media with monosaccharide", "assay_type": "cell-based, Bacteroides thetaiotaomicron", "settings": "OD600 nm up to 30 hours", "description": "Allo-HSCT recipient mice were treated with meropenem as in FIG. 15A and with xylose from days 13 to 20 (FIG. 18F). […] Importantly, in vitro, growth of mouse and human-derived BT in carbohydrate-poor media was augmented by xylose (FIG. 23B). […] Bacteria were cultured up to 48 hours at a starting concentration of 1×10^6 bacteria/ml in BYEM10 broth (pH 7.2) with and without 5 mg/ml of porcine gastric mucin ([…], Sigma-Aldrich). Optical densities (OD600 nm) of bacterial cultures were measured with a BioTek EPOCHTM 2 plate reader."}}, "data": [{"smiles": "O=C[C@H](O)[C@@H](O)[C@H](O)CO", "note": "[xylose, D-(+)-xylose]", "values": [{"measurement": "mucin utilization by BT", "setting": "[1]", "result": "significantly suppressed"}, {"measurement": "expression of GH2 β-galactosidase by murine BT", "setting": "[2]", "result": "not significantly impacted"}, {"measurement": "expression of GH33 sialidase and GH29 α-L-fucosidase by murine BT", "setting": "[2]", "result": "suppressed"}, {"measurement": "relative abundances of BT", "setting": "[3]", "result": "not significantly different"}, {"measurement": "colonic mucus thickness", "setting": "[4]", "result": "prevented thinning of the colonic mucus thickness"}, {"measurement": "growth of BT in carbohydrate-poor media", "setting": "[5]", "result": "augmented"}]}]}
